Converted amounts (≈) assume the structure as drawn. The source made the active and inactive calls. The calls are words filed in the database; no cut-off is given here.

For orientation: IC50 means the point on the concentration scale where inhibition reaches its midpoint. A low value points to inhibition by little substance.

One test has as its system KB. As to the kind of experiment: Cytotoxicity against human KB cells. The format is functional, cell-based.
A further test concerns Staphylococcus aureus. As to the kind of experiment: Antibacterial activity against Staphylococcus aureus at 100 ug/disk. Conditions: read-out: IZ. The format is functional.
Another test deals with HT-29. As to the kind of experiment: Cytotoxicity against human HT-29 cells. The format is functional, cell-based.
For test [1], the system named is Human immunodeficiency virus 1. As to the kind of experiment: Antiviral activity against HIV1 Haitian RF at 1 ug/mL. The format is functional, organism-based.
In another test the test system is A549. As to the kind of experiment: Cytotoxicity against human A549 cells. The format is functional, cell-based.
In the next test the test system is Escherichia coli. As to the kind of experiment: Antibacterial activity against Escherichia coli at 100 ug/disk. The format is functional, organism-based.
Another test relates to P388. As to the kind of experiment: Cytotoxicity against mouse P388 cells. The format is functional, cell-based.

Turning to `COc1ccc(C/C(=N\O)C(=O)NCCc2cc(Br)c(OCCCN)c(Br)c2)cc1Br` [APLYSAMINE 3], the half-inhibitory concentration (IC50) in the test on KB turned out to be 5 µg/mL (≈ 8.04 µM); in the test with HT-29 it was 2 µg/mL (≈ 3.21 µM); in the test on A549 it was 2 µg/mL (≈ 3.21 µM); in the test on P388 it was 1 µg/mL (≈ 1.61 µM). The zone of inhibition at 100 µg/disc in the test with Staphylococcus aureus stood at 10 mm. Further, the outcome (in test [1]; in the test on Escherichia coli) was inactive.
In the case of `Br.COc1c(Br)cc(C/C(=N\O)C(=O)NCCc2cc(Br)c(OCCCN)c(Br)c2)cc1Br` [APLYSAMINE 4], the 50% inhibitory concentration (IC50) in the test with KB stood at 5 µg/mL; in the test on HT-29 it was 2.5 µg/mL; in the test on A549, 2.5 µg/mL; with P388 it was 2.5 µg/mL. Further, the zone of inhibition at 100 µg/disc with Staphylococcus aureus turned out to be 10 mm. For the same compound, the outcome (in test [1]; with Escherichia coli) was inactive.
Turning to `COc1ccc(C/C(=N\O)C(=O)NCCc2cc(Br)c(OCCCNC(=O)CCCCCCCCCCCC(C)C)c(Br)c2)cc1Br` [APLYSAMINE 5], the half-maximal inhibitory concentration (IC50) in the test with KB came out at 2 µg/mL (≈ 2.36 µM); in the test with HT-29, 2.5 µg/mL (≈ 2.95 µM); in the test on A549, 2.5 µg/mL (≈ 2.95 µM); in the test with P388 it was 10 µg/mL (≈ 11.8 µM). In addition, in test [1], the result was inactive.

The values are drawn from ChEMBL document CHEMBL1147375, “Three New Bromotyrosine-Derived Metabolites of the Sponge Psammaplysilla purpurea” (J Nat Prod, 1993).
